Test results: patent EP2925336B1, “NATURAL COMPOUNDS FOR USE IN THE TREATMENT OF BETA-2 ADRENERGIC RECEPTOR RELATED DISEASES” (Harmonic Pharma, priority 2012, dated 2014)

Legend:
[1] = target: human β2-adrenergic receptor (Homo sapiens, UniProt P07550); assay: agonist effect on the human β2-adrenergic receptor, cellular cAMP accumulation assay (HTRF); assay type: cell-based; settings: recombinant CHO cells; for EC50: 30 minutes at room temperature, read-out: ECso; for β2 adrenergic receptor agonist activity: summary in words
human β2-adrenergic receptor, sequence (P07550 whole entry): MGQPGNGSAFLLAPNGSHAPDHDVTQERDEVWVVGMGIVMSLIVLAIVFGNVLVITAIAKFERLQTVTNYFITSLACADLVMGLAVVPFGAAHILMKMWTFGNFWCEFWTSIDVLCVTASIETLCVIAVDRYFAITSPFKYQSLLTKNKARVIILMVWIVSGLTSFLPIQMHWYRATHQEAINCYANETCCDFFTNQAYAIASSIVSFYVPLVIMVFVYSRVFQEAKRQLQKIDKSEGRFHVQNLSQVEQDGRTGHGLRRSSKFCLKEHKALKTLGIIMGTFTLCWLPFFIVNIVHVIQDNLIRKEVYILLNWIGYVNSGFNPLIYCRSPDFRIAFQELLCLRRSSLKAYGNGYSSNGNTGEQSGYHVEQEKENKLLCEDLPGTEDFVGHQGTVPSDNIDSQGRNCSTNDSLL
Source text: We then have tested the in vitro activity of (-)-hydroxymatairesinol (two epimers; 7S,8R,8'R and 7R,8R,8'R), (-)(7S,8R,8'R)-hydroxymatairesinol, (+)-lariciresinol, (-)-secoisolariciresinol, knot-wood extracts of Picea abies and Abies alba against β2-adrenergic receptor, in a cellular based assay, according to the Table 1 below (Baker J.G. (2005), Brit. J. Pharmacol., 144: 317). Table 1: Test of the agonist effect of compounds on the human β2-adrenergic receptor
Mammalian recombinant cells (CHO cells) stably expressing human β2-adrenergic receptor were suspended in HBSS buffer (Invitrogen) complemented with 20 mM HEPES (pH 7.4) and 500 µM IBMX, then distributed in microplates at a density of 10^4 cells/well and incubated for 30 min at room temperature in the presence of HBSS (basal control), the test compound or the reference agonist. For stimulated control measurement, separate assay wells contained 100 nM isoproterenol. Following incubation, the cells were lysed and the fluorescence acceptor (D2-labeled cAMP) and fluorescence donor (anti-cAMP antibody labeled with europium cryptate) were added. After 60 min at room temperature, the fluorescence transfer was measured at λex=337 nm and λem=620 and 665 nm using a microplate reader (Rubystar, BMG). The cAMP concentration was determined by dividing the signal measured at 665 nm by that measured at 620 nm (ratio). Results are expressed as a percent of the control response to 100 nM isoproterenol. The standard reference agonist is isoproterenol, which was tested in each experiment at several concentrations to generate a concentration-response curve from which its EC50 value was calculated.
The knot-wood extract for use of the invention as well as the lignans for use of the invention were tested at a concentration of 10^-5 M. Results are presented in Figure 4, and are expressed as a percentage of control agonist response, wherein 100% corresponds to the agonist response measured when cells are treated with 0.1 µM isoproterenol.
Then, we measured the corresponding EC50. EC50 represents the half maximal effective concentration, and refers to the concentration of a compound which induces a response halfway between the baseline and maximum.

TNF-α [2] = assay: cigarette smoke-induced lung injury model, TNF-α in bronchoalveolar lavage fluid (ELISA); assay type: in vivo; settings: mice exposed to cigarette smoke vs non-treated mice; HMR 30 mg/kg intratracheal instillation daily for 4 days; BAL fluid at day 5; p < 0.05
Description: Male C57B1/6 WT mice (n=36) weighting between 20 and 25 g and aged of 9 weeks were obtained from Janvier Labs (Saint Berthevin, France) and were housed in the animal facility of the laboratory, with free access to water and food, for at least 1 week before the beginning of the experimentation.
The mice were randomly divided into six groups (n = 6/group). Mice were submitted to intratracheal instillation with 50 µl lignan of the invention (HMR with a purity of 95%, 30 mg/kg body wt dissolved in PBS containing 5%DMSO) or with PBS with 5% DMSO daily: After 3 hours mice were exposed to ambient air (AA) or to cigarette smoke (CS; 18 cigarettes per hour) for 3 hours.
This procedure was repeated 4 days. Mice were anesthetized with 250 µl of a solution containing xylazine 10% and ketamine 10% and were sacrificed at day 5. The BAL fluid was collected for analyses.
Lungs were washed twice with 1ml of PBS then centrifuged at 10,000 rpm at 4°C for 10 min, and the resulting supernatant of the BAL was aliquoted as 210 µl samples and used for TNF-α cytokine protein quantification using an ELISA kit (mouse TNFalpha DuoSet; R&D Systems Europe, Ltd., France).

TNF-α [3] = assay: LPS lung injury model, TNF-α in bronchoalveolar lavage fluid (ELISA); assay type: in vivo, mice; settings: LPS group vs control group; HMR 30 mg/kg intratracheal instillation 15 min before LPS; BAL fluid after 24 hours; p < 0.05
Description: (§1) Male C57B1/6 WT mice (n=35) weighing between 20 and 25 g and aged of 8 weeks were obtained from Janvier Labs (Saint Berthevin, France) and were housed in the animal facility of the laboratory, with free access to water and food, for at least 1 week before the beginning of the experimentation.
(§2) The mice were randomly divided into six groups (n = 5-6/group). At t=0, mice were submitted to intratracheal instillation with lignan of the invention (HMR with a purity of 95%, 30 mg/kg body wt dissolved in PBS containing 1% DMSO) or with PBS with 1% DMSO. At t=15 min, mice were submitted to instillation either with 30 µl of elastase (1UI diluted in PBS) or 30 µl of LPS (10 µg/ml diluted in PBS) or 30 µl of PBS containing 1% DMSO. Mice were anesthetized with 150 µl of a solution containing xylazine 10% and ketamine 10% and sacrificed after 24 hours, and the bronchoalveolar lavage (BAL) fluid was collected for subsequent analyses.
(§3) Lungs were washed twice with 1ml of PBS then centrifuged at 10,000 rpm at 4°C for 10 min, and the resulting supernatant of the BAL was aliquoted as 210 µl samples and used for TNF-α cytokine protein quantification using an ELISA kit (mouse TNF-alpha DuoSet; R&D Systems Europe, Ltd., France).

TNF-α [4] = assay: elastase lung injury model, TNF-α in bronchoalveolar lavage fluid (ELISA); assay type: in vivo, mice; settings: elastase group vs control group; HMR 30 mg/kg intratracheal instillation 15 min before elastase; BAL fluid after 24 hours; p < 0.05
Description: as §1, §2, §3

Row | EC50 [1] | SMILES | β2 adrenergic receptor agonist activity [1] | level of TNF-α (TNF-α [2]) | level of TNF-α (TNF-α [3]) | level of TNF-α (TNF-α [4])
1 | 2.5 µM | COc1cc(C[C@@H](CO)[C@H](CO)Cc2ccc(O)c(OC)c2)ccc1O [Seco, (-)-Secoisolariciresinol] | strong β2 adrenergic receptor agonist activity | – | – | –
2 | 1.7 µM | COc1cc(C[C@H]2CO[C@H](c3ccc(O)c(OC)c3)[C@H]2CO)ccc1O [Lari, (+)-lariciresinol] | strong β2 adrenergic receptor agonist activity | – | – | –
3 | 1.5 µM | COc1cc(CC2C(=O)OCC2C(O)c2ccc(O)c(OC)c2)ccc1O (single isomer, unassigned; (-)) [HMR2] | strong β2 adrenergic receptor agonist activity | – | – | –

Row | SMILES | EC50 [1] | β2 adrenergic receptor agonist activity [1] | level of TNF-α (TNF-α [2]) | level of TNF-α (TNF-α [3]) | level of TNF-α (TNF-α [4])
4 | COc1cc(C[C@H]2C(=O)OC[C@@H]2C(O)c2ccc(O)c(OC)c2)ccc1O (mixture of isomers) [HMR, (-) hydroxymatairesinol (2 epimers: 7S,8R,8'R and 7R,8R,8'R)] | 0.35 µM | strong β2 adrenergic receptor agonist activity | significant reduced level | significantly reduced | significantly reduced
